Assay: molar heat capacity at constant pressure
Conditions: 101.33 kPa, Vacuum adiabatic calorimetry

CCCCn1cc[n+](C)c1.[I-] [1-butyl-3-methylimidazolium iodide]
Conditions | molar heat capacity at constant pressure [J/K/mol]
168.81 K, Crystal | 158.7
169.51 K, Crystal | 159.1
170 K, Crystal | 159.4
170 K, Glass | 172.3
170.6 K, Glass | 172.7
170.88 K, Crystal | 159.9
171.57 K, Crystal | 160.3
172.61 K, Glass | 174
172.94 K, Crystal | 161.1
173.64 K, Crystal | 161.5
174.62 K, Glass | 175.4
175.01 K, Crystal | 162.3
175.71 K, Crystal | 162.7
176.63 K, Glass | 176.8
177.07 K, Crystal | 163.5
177.77 K, Crystal | 163.9
178.63 K, Glass | 178.2
179.14 K, Crystal | 164.8
179.83 K, Crystal | 165.2
180 K, Crystal | 165.3
180 K, Glass | 179.1
180.64 K, Glass | 179.6
181.2 K, Crystal | 166.1
181.89 K, Crystal | 166.6
182.64 K, Glass | 181
183.26 K, Crystal | 167.6
183.95 K, Crystal | 168.1
184.64 K, Glass | 182.6
185.31 K, Crystal | 169.1
186 K, Crystal | 169.6
186.65 K, Glass | 184.1
187.36 K, Crystal | 170.6
188.05 K, Crystal | 171.1
188.65 K, Glass | 185.7
189.41 K, Crystal | 171.9
190 K, Crystal | 172.3
190 K, Glass | 186.7
190.1 K, Crystal | 172.4
190.65 K, Glass | 187.2
191.46 K, Crystal | 173.3
192.15 K, Crystal | 173.7
192.65 K, Glass | 188.9
193.51 K, Crystal | 174.5
194.2 K, Crystal | 174.9
194.65 K, Glass | 191
195.56 K, Crystal | 175.7
196.24 K, Crystal | 176.1
196.66 K, Glass | 193
197.6 K, Crystal | 176.9
198.29 K, Crystal | 177.3
198.66 K, Glass | 195.4
199.65 K, Crystal | 178.1
200 K, Crystal | 178.3
200 K, Glass | 197.5
200.33 K, Crystal | 178.5
200.66 K, Glass | 198.5
201.69 K, Crystal | 179.3
202.37 K, Crystal | 179.8
202.93 K, Glass | 204.1
203.73 K, Crystal | 180.5
204.41 K, Crystal | 180.9
205.45 K, Glass | 214.4
205.77 K, Crystal | 181.8
206.45 K, Crystal | 182.2
207.77 K, Liquid | 247.8
207.8 K, Crystal | 183
208.48 K, Crystal | 183.4
209.84 K, Crystal | 184.3
209.86 K, Liquid | 287.7
210 K, Crystal | 184.3
210 K, Liquid | 287.6
210.52 K, Crystal | 184.6
211.87 K, Crystal | 185.5
212.03 K, Liquid | 285.8
212.55 K, Crystal | 185.9
213.91 K, Crystal | 186.8
214.19 K, Liquid | 286.4
214.58 K, Crystal | 187.2
215.94 K, Crystal | 188.1
216.37 K, Liquid | 286.6
216.61 K, Crystal | 188.6
217.97 K, Crystal | 189.5
218.54 K, Liquid | 287.1
218.63 K, Crystal | 190.1
219.99 K, Crystal | 191
220 K, Crystal | 191
220 K, Liquid | 287.3
220.66 K, Crystal | 191.6
220.72 K, Liquid | 287.4
222.01 K, Crystal | 192.5
222.11 K, Liquid | 287.7
222.67 K, Crystal | 193
222.9 K, Liquid | 287.9
224.03 K, Crystal | 194
224.39 K, Liquid | 288.2
224.69 K, Crystal | 194.5
225.09 K, Liquid | 288.5
226.04 K, Crystal | 195.5
226.56 K, Liquid | 288.5
226.7 K, Crystal | 196
226.71 K, Liquid | 288.5
227.28 K, Liquid | 288.7
227.61 K, Crystal | 196.7
228.05 K, Crystal | 197.1
228.71 K, Crystal | 197.5
228.74 K, Liquid | 289
228.79 K, Liquid | 289
229.47 K, Liquid | 289.3
229.61 K, Crystal | 198.3
230 K, Crystal | 198.5
230 K, Liquid | 289.4
230.06 K, Crystal | 198.5
230.71 K, Crystal | 198.9
230.77 K, Liquid | 289.5
230.93 K, Liquid | 289.5
231.61 K, Crystal | 199.7
231.66 K, Liquid | 289.8
232.06 K, Crystal | 200
232.71 K, Crystal | 200.6
232.76 K, Liquid | 289.8
233.11 K, Liquid | 290.1
233.61 K, Crystal | 201.3
233.72 K, Liquid | 290.1
233.86 K, Liquid | 290.3
234.06 K, Crystal | 201.7
234.71 K, Crystal | 202
234.74 K, Liquid | 290.3
235.3 K, Liquid | 290.6
235.61 K, Crystal | 202.8
235.72 K, Liquid | 290.6
236.05 K, Crystal | 203.2
236.05 K, Liquid | 290.9
236.7 K, Crystal | 203.6
236.72 K, Liquid | 290.9
237.48 K, Liquid | 291.1
237.6 K, Crystal | 204.3
237.71 K, Liquid | 291.1
238.04 K, Crystal | 204.8
238.25 K, Liquid | 291.4
238.69 K, Crystal | 205.3
238.71 K, Liquid | 291.4
239.6 K, Crystal | 205.9
239.67 K, Liquid | 291.7
239.7 K, Liquid | 291.7
240 K, Crystal | 206.3
240 K, Liquid | 291.7
240.03 K, Crystal | 206.3
240.46 K, Liquid | 291.9
240.67 K, Crystal | 206.7
240.69 K, Liquid | 291.9
241.59 K, Crystal | 207.5
241.7 K, Liquid | 292.2
241.85 K, Liquid | 292.2
242.01 K, Crystal | 208
242.65 K, Crystal | 208.4
242.68 K, Liquid | 292.5
243.58 K, Crystal | 209.1
243.69 K, Liquid | 292.7
243.99 K, Crystal | 209.6
244.04 K, Liquid | 292.7
244.63 K, Crystal | 210
244.67 K, Liquid | 293
245.57 K, Crystal | 210.8
245.96 K, Crystal | 211.2
246.6 K, Crystal | 211.6
247.55 K, Crystal | 212.5
247.93 K, Crystal | 212.9
248.56 K, Crystal | 213.4
249.54 K, Crystal | 214.3
249.7 K, Liquid | 294.3
250 K, Crystal | 214.6
250 K, Liquid | 294.4
250.52 K, Crystal | 215.1
251.69 K, Liquid | 294.9
252.54 K, Crystal | 217.2
253.58 K, Liquid | 295.4
254.59 K, Crystal | 219.4
255.48 K, Liquid | 295.9
256.64 K, Crystal | 221.7
257.37 K, Liquid | 296.5
258.69 K, Crystal | 224.2
259.26 K, Liquid | 297.3
260 K, Crystal | 223.4
260 K, Liquid | 297.4
260.73 K, Crystal | 227
261.15 K, Liquid | 297.8
262.75 K, Crystal | 230.3
263.05 K, Liquid | 298.3
264.77 K, Crystal | 234
264.94 K, Liquid | 298.9
266.78 K, Crystal | 238.1
266.84 K, Liquid | 299.7
267.43 K, Liquid | 299.7
268.74 K, Liquid | 300.2
268.77 K, Crystal | 243.1
269.42 K, Liquid | 300.5
270 K, Crystal | 232.6
270 K, Liquid | 300.6
270.64 K, Liquid | 300.7
270.74 K, Crystal | 249
271.32 K, Liquid | 301
272.7 K, Crystal | 256.2
273.22 K, Liquid | 301.5
274.63 K, Crystal | 266.1
275.12 K, Liquid | 302.3
276.52 K, Crystal | 280.2
277.02 K, Liquid | 302.9
278.36 K, Crystal | 295.7
278.92 K, Liquid | 303.4
280 K, Crystal | 242.3
280 K, Liquid | 303.8
280.15 K, Crystal | 317.2
280.82 K, Liquid | 303.9
281.86 K, Crystal | 349.7
282.72 K, Liquid | 304.7
283.46 K, Crystal | 398.1
284.62 K, Liquid | 305.2
284.92 K, Crystal | 473.4
286.2 K, Crystal | 587.3
286.52 K, Liquid | 306
287.29 K, Crystal | 773.4
288.17 K, Crystal | 1041
288.42 K, Liquid | 306.6
288.86 K, Crystal | 1421
289.4 K, Crystal | 1917
290 K, Crystal | 252.5
290 K, Liquid | 307.1
290.32 K, Liquid | 307.1
291.92 K, Crystal | 254.5
291.92 K, Liquid | 307.8
292.23 K, Liquid | 307.9
293.86 K, Liquid | 308.4
294.13 K, Liquid | 308.4
294.32 K, Liquid | 308.7
295.68 K, Liquid | 309
296.03 K, Liquid | 309.2
296.1 K, Liquid | 309.2
297.5 K, Liquid | 309.8
297.89 K, Liquid | 309.8
297.93 K, Liquid | 309.8
298.15 K, Liquid | 309.9
299.84 K, Liquid | 310.6
300 K, Liquid | 310.5
301.74 K, Liquid | 311.1
303.65 K, Liquid | 311.9
305.55 K, Liquid | 312.4
307.45 K, Liquid | 313.2
309.36 K, Liquid | 313.8
310 K, Liquid | 314.1
311.26 K, Liquid | 314.6
313.17 K, Liquid | 315.1
315.07 K, Liquid | 315.9
316.98 K, Liquid | 316.7
318.89 K, Liquid | 317.2
320 K, Liquid | 317.6
320.79 K, Liquid | 318
322.7 K, Liquid | 318.6
324.6 K, Liquid | 319.4
326.51 K, Liquid | 320.1
328.41 K, Liquid | 320.7
330 K, Liquid | 321.3
330.32 K, Liquid | 321.5
332.22 K, Liquid | 322
334.13 K, Liquid | 322.8
336.03 K, Liquid | 323.6
337.93 K, Liquid | 324.4
339.84 K, Liquid | 324.9
340 K, Liquid | 325.1
341.74 K, Liquid | 325.7
343.65 K, Liquid | 326.5
345.55 K, Liquid | 327.3
347.47 K, Liquid | 327.9
349.37 K, Liquid | 328.7
350 K, Liquid | 328.9
351.28 K, Liquid | 329.5
353.19 K, Liquid | 330.3
355.09 K, Liquid | 330.8
357 K, Liquid | 331.6
358.91 K, Liquid | 332.4
360 K, Liquid | 332.9
360.81 K, Liquid | 333.2
362.72 K, Liquid | 334
364.62 K, Liquid | 334.8
366.52 K, Liquid | 335.3
368.43 K, Liquid | 336.4
370 K, Liquid | 336.9
